Assay: oxygen radical absorbance capacity (ORAC) assay, antioxidant (AOX) strength testing
Conditions: 0.5% ferulic acid, 0.5% salicylic acid
Source text: The peroxyl radical, generated from the thermal decomposition of 2,2'-azobis-2-methyl-propanimidamide dihydrochloride (AAPH), will quench a fluorescent probe by a hydrogen atom transfer reaction. In the presence of an antioxidant, however, the molecule will initially block or prevent the quenching of the probe, causing a delay in the fluorescence decay profile. The area under the fluorescence decay curves for samples with and without the presence of an antioxidant are compared to that of a standard reference material and the peroxyl radical antioxidant capacity is determined. References disclosing ORAC assays include Cao G, Alessio H, Cutler R (1993). “Oxygen-radical absorbance capacity assay for antioxidants”. Free Radic Biol Med 14 (3): 303-11; Ou B, Hampsch-Woodill M, Prior R (2001). “Development and validation of an improved oxygen radical absorbance capacity assay using fluorescein as the fluorescent probe”. J Agric Food Chem 49 (10): 4619-26; Huang D, Ou B, Prior R (2005). “The chemistry behind antioxidant capacity assays”. J. Agric. Food Chem. 53 (6): 1841-56; and Garrett A R, Murray B K, Robison […] (2010). “Measuring antioxidant capacity using the ORAC and TOSC assays”. Advanced Protocols in Oxidative Stress II: Methods in Molecular Biology (series), Donald J Armstrong (ed) 594: 251-62.

Structure (SMILES)	effect on overall antioxidant capacity of the association (1% gallic acid added to 15% ascorbic acid)	effect on overall antioxidant capacity of the association (5% gallic acid added to 15% ascorbic acid)	contribution to antioxidant potential of the association (Zinc PCA 0.5% added to compositions with 15% ascorbic acid)
O=C(O)c1cc(O)c(O)c(O)c1 [gallic acid, 3,4,5-trihydroxybenzoic acid]	modest	significant	
O=C1CC[C@@H](C(=O)[O-])N1.O=C1CC[C@@H](C(=O)[O-])N1.[Zn+2] [Zinc PCA]			not found to be a contributing factor

— patent US20210085582A1, “SYNERGISTIC ANTIOXIDANT ACID COMPOUND ASSOCIATIONS” (L'OREAL, priority 2019, published 2021)
